How the values were obtained:
[1] = system: CYPES: yellow nutsedge (Cyperus esculentus); assay: Post-Emergent Test I herbicidal activity; type: in vivo; details: post-emergence, 336 h, read-out: Visual Growth Reduction (%)-14 Days after Application CYPES; for pest or weed control at 140 g/ha: Table 3, 140 g ai/ha; for pest or weed control at 70 g/ha: Table 3, 70 g ai/ha; for pest or weed control at 280 g/ha: Table 3, 280 g ai/ha
Summary of the method: (§1)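 Greenhouse-grown seedlings (peat-based mix, pH 6.0–6.8; ~15 h photoperiod, 23–29 °C day) were sprayed post-emergence at first/second true-leaf stage with compound in acetone/DMSO/aqueous crop-oil–surfactant carrier at 187 L/ha, using a twofold rate series. Injury was scored visually after 14 d (0–100%); GR20/GR50/GR80 derived by probit analysis.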

[2] = system: ABUTH: velvetleaf (Abutilon theophrasti); assay: Post-Emergent Test I herbicidal activity; type: in vivo; details: Abutilon theophrasti, post-emergence, 336 h, read-out: Visual Growth Reduction (%)-14 Days after Application ABUTH; for pest or weed control at 140 g/ha: Table 3, 140 g ai/ha; for pest or weed control at 70 g/ha: Table 3, 70 g ai/ha; for pest or weed control at 280 g/ha: Table 3, 280 g ai/ha
Summary of the method: as §1

[3] = system: ECHCG: barnyardgrass (Echinochloa crus-galli); assay: Post-Emergent Test I herbicidal activity; type: in vivo; details: post-emergence, 336 h, read-out: Visual Growth Reduction (%)-14 Days after Application ECHCG; for pest or weed control at 140 g/ha: Table 3, 140 g ai/ha; for pest or weed control at 70 g/ha: Table 3, 70 g ai/ha; for pest or weed control at 280 g/ha: Table 3, 280 g ai/ha
Summary of the method: (§2)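 Visual injury ratings (0 = none, 100 = complete kill) taken 14 d after treatment, compared with untreated plants, feed probit-derived GR20/GR50/GR80. Application: overhead spray, 187 L/ha, highest rate and ½×-1/16× dilutions in acetone-DMSO-based aqueous spray mix with crop oil and surfactant, onto plants grown 7-21 d to first or second true leaf.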

[4] = system: CHEAL: lambsquarters (Chenopodium album); assay: Post-Emergent Test I herbicidal activity; type: in vivo; details: Chenopodium album, post-emergence, 336 h, read-out: Visual Growth Reduction (%)-14 Days after Application CHEAL; for pest or weed control at 140 g/ha: Table 3, 140 g ai/ha; for pest or weed control at 70 g/ha: Table 3, 70 g ai/ha; for pest or weed control at 280 g/ha: Table 3, 280 g ai/ha
Summary of the method: as §1

[5] = system: EPHHL: wild poinsettia (Euphorbia heterophylla); assay: Post-Emergent Test I herbicidal activity; type: in vivo; details: post-emergence, 336 h, read-out: Visual Growth Reduction (%)-14 Days after Application EPHHL; for pest or weed control at 140 g/ha: Table 3, 140 g ai/ha; for pest or weed control at 70 g/ha: Table 3, 70 g ai/ha; for pest or weed control at 280 g/ha: Table 3, 280 g ai/ha
Summary of the method: as §1

[6] = system: ORYSA: rice (Oryza sativa); assay: Post-Emergent Test I herbicidal activity; type: in vivo; details: post-emergence, 336 h, read-out: Visual Growth Reduction (%)-14 Days after Application ORYSA; for pest or weed control at 140 g/ha: Table 3, 140 g ai/ha; for pest or weed control at 70 g/ha: Table 3, 70 g ai/ha; for pest or weed control at 280 g/ha: Table 3, 280 g ai/ha
Summary of the method: as §2

ZEAMX: corn (Zea mays) = assay: Post-Emergent Test I herbicidal activity; type: in vivo; details: Zea mays, post-emergence, 336 h, read-out: Visual Growth Reduction (%)-14 Days after Application ZEAMX; for pest or weed control at 140 g/ha: Table 3, 140 g ai/ha; for pest or weed control at 70 g/ha: Table 3, 70 g ai/ha; for pest or weed control at 280 g/ha: Table 3, 280 g ai/ha
Summary of the method: as §1

Row | melting point | Compound | pest or weed control at 140 g/ha [1] | pest or weed control at 140 g/ha [2] | pest or weed control at 140 g/ha [3] | pest or weed control at 140 g/ha [4] | pest or weed control at 140 g/ha [5] | pest or weed control at 140 g/ha [6] | pest or weed control at 140 g/ha (ZEAMX: corn (Zea mays)) | further results
1 | 168 to 170 °C | CSc1c(C(=O)O)nc(-c2ccc(Cl)c(F)c2)c(F)c1N [Compound 72] | 90% | 80% | 0% | 100% | 100% | 30% | 60% | 
2 | 151 °C | COc1c(C(=O)O)nc(-c2ccc(Cl)c(F)c2F)c(F)c1N [Compound 48] | 100% | 90% | 90% | 100% | 100% | 0% | 80% | 
3 | 145 to 147 °C | COc1c(C(=O)O)nc(-c2ccc(I)c(F)c2F)c(F)c1N [Compound 28] |  |  |  |  |  |  |  | pest or weed control at 70 g/ha [1]: 40%; pest or weed control at 70 g/ha [2]: 70%; pest or weed control at 70 g/ha [3]: 80%; pest or weed control at 70 g/ha [4]: 100%; pest or weed control at 70 g/ha [5]: 100%; pest or weed control at 70 g/ha [6]: 5%; pest or weed control at 70 g/ha (ZEAMX: corn (Zea mays)): 70%
4 | 113 to 115 °C | COC(=O)c1nc(-c2ccc(Cl)c(N(C)C)c2F)c(F)c(N)c1OC [Compound 43] | 50% | 90% | 80% | 100% | 100% | 0% | 70% | 
5 | 130 to 132 °C | COC(=O)c1nc(-c2ccc(C(F)(F)F)nc2)c(F)c(N)c1OC [Compound 40] | 100% | 80% | 50% | 100% | 100% | 0% | 70% | 
6 | 148.5 to 150.5 °C | CCc1nc(C(=O)O)c(OC)c(N)c1F [Compound 58] |  |  |  |  |  |  |  | pest or weed control at 280 g/ha [1]: 0%; pest or weed control at 280 g/ha [2]: 60%; pest or weed control at 280 g/ha [3]: 0%; pest or weed control at 280 g/ha [4]: 80%; pest or weed control at 280 g/ha [5]: 65%; pest or weed control at 280 g/ha [6]: 0%; pest or weed control at 280 g/ha (ZEAMX: corn (Zea mays)): 10%
7 | 135 to 137 °C | COc1c(C(=O)O)nc(-c2ccc(C(F)(F)F)cc2)c(F)c1N [Compound 50] | 100% | 90% | 70% | 90% | 100% | 30% | 75% | 
8 | 120 to 123 °C | COC(=O)c1nc(-c2cc(F)c(Cl)cc2F)c(F)c(N)c1OC [Compound 39] |  |  |  |  |  |  |  | pest or weed control at 70 g/ha [1]: 100%; pest or weed control at 70 g/ha [2]: 80%; pest or weed control at 70 g/ha [3]: 80%; pest or weed control at 70 g/ha [4]: 100%; pest or weed control at 70 g/ha [5]: 100%; pest or weed control at 70 g/ha [6]: 0%; pest or weed control at 70 g/ha (ZEAMX: corn (Zea mays)): 75%
9 | 110 to 112 °C | COC(=O)c1nc(-c2ccc3c(c2)OCO3)c(F)c(N)c1OC [Compound 37] | 100% | 55% | 100% | 100% | 100% | 0% | 75% | 
10 | 127 to 129 °C | COC(=O)c1nc(-c2cc(F)c(I)cc2F)c(F)c(N)c1OC [Compound 25] | 100% | 70% | 85% | 90% | 100% | 0% | 70% | 
11 | 139 to 141 °C | COC(=O)c1nc(-c2ccc(C(F)(F)F)c(F)c2F)c(F)c(N)c1OC [Compound 38] | 50% | 85% | 10% | 90% | 100% | 0% | 75% | 

More lines, now with the values behind:

Row | Compound | melting point | pest or weed control at 140 g/ha [1] | pest or weed control at 140 g/ha [2] | pest or weed control at 140 g/ha [3] | pest or weed control at 140 g/ha [4] | pest or weed control at 140 g/ha [5] | pest or weed control at 140 g/ha [6] | pest or weed control at 140 g/ha (ZEAMX: corn (Zea mays)) | further results
12 | CCOC(=O)c1nc(-c2ccc(Cl)c(OC)c2F)cc(N)c1SC [Compound 88, Ethyl 4-amino-6-(4-chloro-2-fluoro-3-methoxyphenyl)-3-(methylthio)picolinate] | 93 to 94 °C | 60% | 100% | 100% | 100% | 100% | 0% | 80% | 
13 | CSc1c(C(=O)O)nc(Cl)c(F)c1N [Compound 73] | 176 to 178 °C | 0% | 10% | 0% | 10% | 50% | 0% | 0% | 
14 | COC(=O)c1nc(-c2ccc(Cl)c(OC)c2F)cc(N)c1OC [Compound 5, methyl 4-amino-6-(4-chloro-2-fluoro-3-methoxyphenyl)-3-methoxypicolinate] | 114 to 118 °C |  |  |  |  |  |  |  | pest or weed control at 70 g/ha [1]: 20%; pest or weed control at 70 g/ha [2]: 100%; pest or weed control at 70 g/ha [3]: 80%; pest or weed control at 70 g/ha [4]: 100%; pest or weed control at 70 g/ha [5]: 100%; pest or weed control at 70 g/ha [6]: 0%; pest or weed control at 70 g/ha (ZEAMX: corn (Zea mays)): 60%
15 | COC(=O)c1nc(-c2ccc(Cl)c(F)c2)c(F)c(N)c1SC [Compound 93, Methyl 4-amino-6-(4-chloro-3-fluorophenyl)-5-fluoro-3-(methylthio)picolinate] | 125 to 126 °C | 0% | 30% | 0% | 90% | 50% | 0% | 0% | 
16 | CCc1nc(C(=O)OC)c(OC)c(N)c1F [Compound 13, methyl 4-amino-6-ethyl-5-fluoro-3-methoxypicolinate] | 110.5 to 113 °C |  |  |  |  |  |  |  | pest or weed control at 280 g/ha [1]: 0%; pest or weed control at 280 g/ha [2]: 0%; pest or weed control at 280 g/ha [3]: 0%; pest or weed control at 280 g/ha [4]: 90%; pest or weed control at 280 g/ha [5]: 70%; pest or weed control at 280 g/ha [6]: 0%; pest or weed control at 280 g/ha (ZEAMX: corn (Zea mays)): 0%
17 | COC(=O)c1nc(Cl)c(Cl)c(N)c1OC [Compound 2, methyl 4-amino-5,6-dichloro-3-methoxypicolinate] | 119 to 121 °C |  |  |  |  |  |  |  | pest or weed control at 280 g/ha [1]: 0%; pest or weed control at 280 g/ha [2]: 90%; pest or weed control at 280 g/ha [3]: 0%; pest or weed control at 280 g/ha [4]: 90%; pest or weed control at 280 g/ha [5]: 95%; pest or weed control at 280 g/ha [6]: 0%; pest or weed control at 280 g/ha (ZEAMX: corn (Zea mays)): 0%
18 | COC(=O)c1nc(-c2ccc(Cl)c(OC)c2F)c(F)c(N)c1SC [Compound 94, Methyl 4-amino-6-(4-chloro-2-fluoro-3-methoxyphenyl)-5-fluoro-3-(methylthio)picolinate] | 113 to 117 °C | 0% | 60% | 0% | 85% | 65% | 0% | 0% | 
